In ChEMBL document CHEMBL1134928, “Synthesis and evaluation of potent pyrrolidine H(3) antagonists” (Bioorg Med Chem Lett, 2002):

Experiments:
Histamine H2 receptor [1] = target: T1, Histamine H2 receptor (Homo sapiens, UniProt P25021); experiment: Binding affinity to the human Histamine H2 receptor
Histamine H3 receptor [2] = target: T2, Histamine H3 receptor (Rattus norvegicus, UniProt Q9QYN8); experiment: Binding affinity against rat histamine H3 receptor
Histamine H1 receptor [3] = target: T3, Histamine H1 receptor (Homo sapiens, UniProt P35367); experiment: Binding affinity to the human Histamine H1 receptor
T3 sequence (P35367 whole entry): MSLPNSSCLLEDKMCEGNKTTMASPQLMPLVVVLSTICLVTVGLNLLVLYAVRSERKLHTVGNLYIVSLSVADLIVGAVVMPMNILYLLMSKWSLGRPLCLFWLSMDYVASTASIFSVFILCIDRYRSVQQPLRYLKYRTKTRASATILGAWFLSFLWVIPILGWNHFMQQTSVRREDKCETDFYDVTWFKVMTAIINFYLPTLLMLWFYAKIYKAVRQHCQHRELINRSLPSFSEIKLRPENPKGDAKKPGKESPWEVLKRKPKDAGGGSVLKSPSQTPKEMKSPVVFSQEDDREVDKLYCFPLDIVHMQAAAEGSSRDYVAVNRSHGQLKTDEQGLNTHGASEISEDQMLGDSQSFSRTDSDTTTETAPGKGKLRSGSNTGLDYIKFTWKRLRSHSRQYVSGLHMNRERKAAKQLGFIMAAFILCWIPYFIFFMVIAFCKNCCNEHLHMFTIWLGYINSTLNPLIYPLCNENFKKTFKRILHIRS

Histamine H1 receptor [4] = target: T3, Histamine H1 receptor; experiment: Binding affinity towards human Histamine H1 receptor (For compound 11)
Histamine H2 receptor [5] = target: T1, Histamine H2 receptor; experiment: Binding affinity towards human Histamine H2 receptor (For compound 11)
Histamine H3 receptor [6] = target: T2, Histamine H3 receptor; experiment: Binding affinity towards rat Histamine H3 receptor (For compound 11)
Histamine H3 receptor [7] = target: T2, Histamine H3 receptor; experiment: Binding affinity towards rats Histamine type 3 (H3) receptor

T1 sequence (P25021 whole entry): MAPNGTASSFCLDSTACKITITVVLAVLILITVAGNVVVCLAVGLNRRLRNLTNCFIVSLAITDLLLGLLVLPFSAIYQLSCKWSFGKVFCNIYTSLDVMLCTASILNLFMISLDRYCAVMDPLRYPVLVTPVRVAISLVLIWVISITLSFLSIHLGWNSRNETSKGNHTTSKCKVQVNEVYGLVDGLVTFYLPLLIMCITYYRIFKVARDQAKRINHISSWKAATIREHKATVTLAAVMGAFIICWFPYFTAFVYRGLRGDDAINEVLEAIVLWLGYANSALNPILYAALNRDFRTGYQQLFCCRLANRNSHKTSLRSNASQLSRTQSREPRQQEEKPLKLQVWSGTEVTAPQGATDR
T2 sequence (Q9QYN8 whole entry): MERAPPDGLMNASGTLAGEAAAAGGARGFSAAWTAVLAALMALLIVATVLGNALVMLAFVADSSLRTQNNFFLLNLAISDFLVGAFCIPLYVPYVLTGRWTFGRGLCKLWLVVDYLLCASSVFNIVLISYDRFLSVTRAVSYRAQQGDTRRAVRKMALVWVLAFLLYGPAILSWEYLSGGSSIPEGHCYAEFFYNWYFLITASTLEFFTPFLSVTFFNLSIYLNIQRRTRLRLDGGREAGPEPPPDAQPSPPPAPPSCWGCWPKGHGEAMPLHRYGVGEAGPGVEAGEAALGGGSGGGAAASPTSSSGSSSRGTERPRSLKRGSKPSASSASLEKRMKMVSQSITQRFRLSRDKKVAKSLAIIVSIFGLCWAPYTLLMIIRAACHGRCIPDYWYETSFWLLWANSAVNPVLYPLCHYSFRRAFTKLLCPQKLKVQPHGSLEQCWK

Row | Structure (SMILES) | Ki (Histamine H2 receptor [1]) | Ki (Histamine H3 receptor [2]) | Ki (Histamine H1 receptor [3]) | further results
1 | CC(C)(C)OC(=O)NCCC(=O)N1C[C@@H]2C[C@H]1CN2CCCOc1ccc(C(=O)C2CC2)cc1 |  | 71 nM |  | 
2 | CCS(=O)(=O)N1C[C@@H]2C[C@H]1CN2CCCOc1ccc(C(=O)C2CC2)cc1 |  | 120 nM |  | 
3 | CC(=O)c1ccc(OCCCN2CC[C@H](NC(=O)[C@@H](C)NC(=O)OC(C)(C)C)C2)cc1 | 40000 nM | 307 nM | 56000 nM | 
4 | CC(=O)c1ccc(OCCCN2CC[C@H](NC(=O)[C@H](CO)NC(=O)OC(C)(C)C)C2)cc1 | 46000 nM | 587 nM | 75000 nM | 
5 | CC(=O)c1ccc(OCCCN2CC[C@H](NC(=O)c3ccc(C#N)cc3)C2)cc1 | 6100 nM | 40 nM | 13000 nM | 
6 | CC(=O)c1ccc(OCCCN2CC[C@H](N)C2)cc1 | 50000 nM |  | 90000 nM | Ki (Histamine H1 receptor [4]): 100000 nM; Ki (Histamine H2 receptor [5]): 31000 nM; Ki (Histamine H3 receptor [6]): 676 nM
7 | O=C(c1ccc(OCCCN2C[C@@H]3C[C@H]2CN3C(=O)c2ccc(F)cc2)cc1)C1CC1 |  | 258 nM |  | 
8 | O=C(N[C@H]1CCN(CCCOc2ccc(C(=O)C3CC3)cc2)C1)c1csc(-c2cccnc2)n1 | 4000 nM | 50 nM | 37000 nM | 
9 | O=C(O)CCNC(=O)N1C[C@@H]2C[C@H]1CN2CCCOc1ccc(C(=O)C2CC2)cc1 |  | 17 nM |  | 
10 | CC(=O)c1ccc(OCCCN2CC[C@H](NS(=O)(=O)c3ccc(C#N)cc3)C2)cc1 | 2300 nM | 6 nM | 14000 nM | 
11 | CC(=O)c1ccc(OCCCN2CC[C@H](NC(=O)c3cccnc3)C2)cc1 | 3500 nM |  | 7400 nM | 
12 | O=C(c1ccc(OCCCN2C[C@@H]3C[C@H]2CN3C(=O)c2ccccc2)cc1)C1CC1 |  | 344 nM |  | 
13 | CC(=O)c1ccc(OCCCN2CC[C@H](NC(=O)[C@@H](N)CO)C2)cc1 | 22000 nM | 151 nM | 43000 nM | 
14 | CC(=O)c1ccc(OCCCN2CC[C@H](NC(=O)[C@H](C)NC(=O)OC(C)(C)C)C2)cc1 | 24000 nM | 901 nM | 60000 nM | 
15 | O=C(c1ccc(OCCCN2C[C@@H]3C[C@H]2CN3C(=O)c2ccccn2)cc1)C1CC1 |  | 191 nM |  | 
16 | C[C@H](NC(=O)N1C[C@@H]2C[C@H]1CN2CCCOc1ccc(C(=O)C2CC2)cc1)C(=O)O |  | 232 nM |  | 
17 | O=C(c1ccc(OCCCN2C[C@@H]3C[C@H]2CN3S(=O)(=O)c2ccccc2)cc1)C1CC1 |  | 19 nM |  | 
18 | CC(=O)c1ccc(OCCCN2CC[C@H](NC(=O)[C@@H](CO)NC(=O)OC(C)(C)C)C2)cc1 | 100000 nM | 310 nM | 80000 nM | 
19 | CC(=O)c1ccc(OCCCN2CC[C@H](NC(=O)c3csc(-c4cccnc4)n3)C2)cc1 | 6200 nM | 55 nM | 11000 nM | 
20 | C[C@@H](NC(=O)N1C[C@@H]2C[C@H]1CN2CCCOc1ccc(C(=O)C2CC2)cc1)C(=O)O |  | 413 nM |  | 
21 | O=C(c1ccc(OCCCN2C[C@@H]3C[C@H]2CN3C(=O)C2CCCCC2)cc1)C1CC1 |  | 134 nM |  | 
22 | O=C(c1ccc(OCCCN2C[C@@H]3C[C@H]2CN3C(=O)c2ccco2)cc1)C1CC1 |  | 208 nM |  | 
23 | CC(=O)c1ccc(OCCCN2CC[C@H](NC(=O)c3cnccn3)C2)cc1 | 5000 nM | 202 nM | 10000 nM | 
24 | CCCCCC(=O)c1ccc(OCCCN2CCN(C(=O)OCC)CC2)cc1 |  |  |  | Ki (Histamine H3 receptor [7]): 2 nM

Second part, led by results:

Row | Ki (Histamine H2 receptor [1]) | Ki (Histamine H3 receptor [2]) | Ki (Histamine H1 receptor [3]) | Structure (SMILES) | further results
25 | 500 nM | 3.5 nM | 9200 nM | O=C(c1ccc(OCCCN2CC[C@H](NS(=O)(=O)c3ccc(F)cc3)C2)cc1)C1CC1 | 
26 | 1200 nM | 3 nM | 9100 nM | O=C(c1ccc(OCCCN2CC[C@H](NS(=O)(=O)c3ccccc3)C2)cc1)C1CC1 | 
27 | 1600 nM | 1.6 nM | 5900 nM | O=C(c1ccc(OCCCN2CC[C@H](NS(=O)(=O)c3cccc(F)c3)C2)cc1)C1CC1 | 
28 | 330 nM | 4.6 nM | 2300 nM | CCc1ccc(S(=O)(=O)N[C@H]2CCN(CCCOc3ccc(C(=O)C4CC4)cc3)C2)cc1 | 
29 | 710 nM | 11 nM | 6200 nM | N#Cc1ccccc1S(=O)(=O)N[C@H]1CCN(CCCOc2ccc(C(=O)C3CC3)cc2)C1 | 
30 | 290 nM | 3.8 nM | 2500 nM | O=C(c1ccc(OCCCN2CC[C@H](NS(=O)(=O)c3ccc(Cl)cc3)C2)cc1)C1CC1 | 
31 | 1800 nM | 2.7 nM | 6600 nM | Cc1cccc(S(=O)(=O)N[C@H]2CCN(CCCOc3ccc(C(=O)C4CC4)cc3)C2)c1 | 
32 | 380 nM | 4.2 nM | 5500 nM | Cc1ccc(S(=O)(=O)N[C@H]2CCN(CCCOc3ccc(C(=O)C4CC4)cc3)C2)cc1 | 
33 | 730 nM | 5.2 nM | 2300 nM | CC(C)(C)c1ccc(S(=O)(=O)N[C@H]2CCN(CCCOc3ccc(C(=O)C4CC4)cc3)C2)cc1 | 
34 | 7100 nM | 10 nM | 91000 nM | Cn1cnc(S(=O)(=O)N[C@H]2CCN(CCCOc3ccc(C(=O)C4CC4)cc3)C2)c1 | 
35 | 1000 nM |  | 4500 nM | O=C(c1ccc(OCCCN2CC[C@H](NS(=O)(=O)c3ccccc3Cl)C2)cc1)C1CC1 | 
36 | 1550 nM | 2.7 nM | 9400 nM | O=C(c1ccc(OCCCN2CC[C@H](NS(=O)(=O)c3ccccc3F)C2)cc1)C1CC1 | 
37 | 1000 nM | 2.9 nM | 4400 nM | COc1ccc(S(=O)(=O)N[C@H]2CCN(CCCOc3ccc(C(=O)C4CC4)cc3)C2)cc1 | 
38 | 900 nM | 2.8 nM | 8900 nM | N#Cc1cccc(S(=O)(=O)N[C@H]2CCN(CCCOc3ccc(C(=O)C4CC4)cc3)C2)c1 | 
39 | 2200 nM | 11 nM | 16000 nM | Cc1ccccc1S(=O)(=O)N[C@H]1CCN(CCCOc2ccc(C(=O)C3CC3)cc2)C1 | 
40 | 700 nM | 3 nM | 3600 nM | O=C(c1ccc(OCCCN2CC[C@H](NS(=O)(=O)c3cccc(Cl)c3)C2)cc1)C1CC1 | 
41 | 1600 nM | 4 nM | 20000 nM | N#Cc1ccc(S(=O)(=O)N[C@H]2CCN(CCCOc3ccc(C(=O)C4CC4)cc3)C2)cc1 | 
42 | 290 nM | 5 nM | 1500 nM | O=C(c1ccc(OCCCN2CC[C@H](NS(=O)(=O)c3ccc(Br)cc3)C2)cc1)C1CC1 | 
